In general, melting point refers to the temperature, or range, at which the solid turns liquid.

SMILES strings stand for the structures.

Compound `CCOc1ccc(-c2cc(C(F)(F)F)n3cnc(-c4ccncc4)c3n2)cc1C(F)(F)F` [Example 8.17, 2-(4-Ethoxy-3-trifluoromethyl-phenyl)-8-pyridin-4-yl-4-trifluoromethyl-imidazo[1,5-a]pyrimidine] displayed a melting point of 244 °C. For `FC(F)(F)c1cccc(-c2cc(C(F)(F)F)n3cnc(-c4ccncc4)c3n2)c1` [Example 8.13, 8-Pyridin-4-yl-4-trifluoromethyl-2-(3-trifluoromethyl-phenyl)-imidazo[1,5-a]pyrimidine], the melting point was determined as 258 °C. With `Cc1ccc(-c2cc(C(F)(F)F)n3ncc(-c4cccnc4)c3n2)cc1C(F)(F)F` [Example 4.26, 5-(4-Methyl-3-trifluoromethyl-phenyl)-3-pyridin-3-yl-7-trifluoromethyl-pyrazolo[1,5-a]pyrimidine], the melting point worked out at 182 °C. Under `Cc1cc(-c2cnn3c(C(F)(F)F)cc(-c4ccc(Br)cc4)nc23)cc(C)n1` [Example 4.57, 5-(4-Bromo-phenyl)-3-(2,6-dimethyl-pyridin-4-yl)-7-trifluoromethyl-pyrazolo[1,5-a]pyrimidine] stands 258 °C; under `CCOc1ccc(-c2cc(C(F)(F)F)n3ncc(-c4ccnc(C)c4)c3n2)cc1C(F)(F)F` [Example 4.44, 5-(4-Ethoxy-3-trifluoromethyl-phenyl)-3-(2-methyl-pyridin-4-yl)-7-trifluoromethyl-pyrazolo[1,5-a]pyrimidine], 250 °C; under `N#Cc1cnn2c(C(F)(F)F)cc(-c3cccc(Cl)c3)nc12` [Example 1.1, 5-(3-Chloro-phenyl)-7-trifluoromethyl-pyrazolo[1,5-a]pyrimidine-3-carbonitrile], 204 °C. Under `Cc1cc(-c2cnn3c(C(F)(F)F)cc(-c4ccc(Cl)cc4)nc23)cc(C)n1` [Example 4.19, 5-(4-Chloro-phenyl)-3-(2,6-dimethyl-pyridin-4-yl)-7-trifluoromethyl-pyrazolo[1,5-a]pyrimidine] stands 256 °C. With `Cc1cc(-c2cc(C(F)(F)F)n3cnc(C#N)c3n2)ccc1C(F)(F)F` [Example 5.23, 2-(3-Methyl-4-trifluoromethyl-phenyl)-4-trifluoromethyl-imidazo[1,5-a]pyrimidine-8-carbonitrile] the figure was 217 °C; with `Cc1cc(-c2cnn3c(C(F)(F)F)cc(-c4ccc(Br)cc4)nc23)ccn1` [Example 4.56, 5-(4-Bromo-phenyl)-3-(2-methyl-pyridin-4-yl)-7-trifluoromethyl-pyrazolo[1,5-a]pyrimidine], 226 °C; with `N#Cc1ncn2c(C(F)(F)F)cc(-c3cccc(Cl)c3)nc12` [Example 5.3, 2-(3-Chloro-phenyl)-4-trifluoromethyl-imidazo[1,5-a]pyrimidine-8-carbonitrile], 221 °C.

The compound `Fc1cc(-c2cc(C(F)(F)F)n3ncc(-c4ccncc4)c3n2)ccc1C(F)(F)F` [Example 4.17, 5-(3-Fluoro-4-trifluoromethyl-phenyl)-3-pyridin-4-yl-7-trifluoromethyl-pyrazolo[1,5-a]pyrimidine] came in with a melting point of 262 °C.

As to `Cc1cc(-c2ncn3c(C(F)(F)F)cc(-c4ccc(Cl)cc4)nc23)ccn1` [Example 8.20, 2-(4-Chloro-phenyl)-8-(2-methyl-pyridin-4-yl)-4-trifluoromethyl-imidazo[1,5-a]pyrimidine], the melting point was 232 °C. Compound `OCc1cc(-c2cnn3c(C(F)(F)F)cc(-c4ccc(Cl)c(Cl)c4)nc23)ccn1` [Example 6.4, {4-[5-(3,4-Dichloro-phenyl)-7-trifluoromethyl-pyrazolo[1,5-a]pyrimidin-3-yl]-pyridin-2-yl}-methanol] registered a melting point of 233 °C.

As for `N#Cc1cnn2c(C(F)(F)F)cc(-c3ccc(F)cc3F)nc12` [Example 1.10, 5-(2,4-Difluoro-phenyl)-7-trifluoromethyl-pyrazolo[1,5-a]pyrimidine-3-carbonitrile], the melting point was 149 °C. With `Cc1cc(-c2cnn3c(C(F)F)cc(-c4ccc(C(F)(F)F)cc4)nc23)ccn1` [Example 9.2, 7-Difluoromethyl-3-(2-methyl-pyridin-4-yl)-5-(4-trifluoromethyl-phenyl)-pyrazolo[1,5-a]pyrimidine] the figure was 213 °C; with `Cc1ccccc1-c1cc(C(F)(F)F)n2cnc(C#N)c2n1` [Example 5.8, 2-(2-Methyl-phenyl)-4-trifluoromethyl-imidazo[1,5-a]pyrimidine-8-carbonitrile], 151 °C.

In the case of `Cc1ccc(-c2cc(C(F)(F)F)n3cnc(C#N)c3n2)cc1` [Example 5.4, 2-(4-Methyl-phenyl)-4-trifluoromethyl-imidazo[1,5-a]pyrimidine-8-carbonitrile], the melting point turned out to be 197 °C.

In turn, `Cc1cc(-c2ncn3c(C(F)(F)F)cc(-c4ccc(Br)cc4)nc23)ccn1` [Example 8.36, 2-(4-Bromo-phenyl)-8-(2-methyl-pyridin-4-yl)-4-trifluoromethyl-imidazo[1,5-a]pyrimidine] registered a melting point of 249 °C. With `FC(F)(F)c1ccc(-c2cc(C(F)(F)F)n3ncc(-c4ccncc4)c3n2)cc1C(F)(F)F` [Example 4.53, 5-(3,4-Bis-trifluoromethyl-phenyl)-3-pyridin-4-yl-7-trifluoromethyl-pyrazolo[1,5-a]pyrimidine] the figure was 209 °C; with `Cc1cc(-c2cnn3c(C(F)(F)F)cc(-c4ccc(OCC(F)(F)F)c(C(F)(F)F)c4)nc23)cc(C)n1` [Example 4.45, 5-[4-(2,2,2-Trifluoroethoxy)-3-trifluoromethyl-phenyl]-3-(2,6-dimethyl-pyridin-4-yl)-7-trifluoromethyl-pyrazolo[1,5-a]pyrimidine], 229 °C; with `FC(F)(F)c1ccc(-c2cc(C(F)(F)F)n3ncc(-c4ccncc4)c3n2)cc1` [Example 4.15, 5-(4-Trifluoromethyl-phenyl)-3-pyridin-4-yl-7-trifluoromethyl-pyrazolo[1,5-a]pyrimidine], 261 °C.

Regarding `CCOc1cc(-c2cc(C(F)(F)F)n3ncc(-c4ccncc4)c3n2)ccc1C(F)(F)F` [Example 4.47, 5-(3-Ethoxy-4-trifluoromethyl-phenyl)-3-pyridin-4-yl-7-trifluoromethyl-pyrazolo[1,5-a]pyrimidine], the melting point is 251 °C. For `CCOc1cc(-c2cc(C(F)(F)F)n3cnc(-c4ccnc(C)c4)c3n2)ccc1C(F)(F)F` [Example 8.31, 2-(3-Ethoxy-4-trifluoromethyl-phenyl)-8-(2-methyl-pyridin-4-yl)-4-trifluoromethyl-imidazo[1,5-a]pyrimidine], the melting point is 177 °C. `FC(F)(F)COc1cc(-c2cc(C(F)(F)F)n3cnc(-c4ccncc4)c3n2)ccc1C(F)(F)F` [Example 8.32, 8-Pyridin-4-yl-2-[3-(2,2,2-trifluoro-ethoxy)-4-trifluoromethyl-phenyl]-4-trifluoromethyl-imidazo[1,5-a]pyrimidine] came in with a melting point of 233 °C. Regarding `N#Cc1ncn2c(C(F)(F)F)cc(-c3ccccc3Cl)nc12` [Example 5.6, 2-(2-Chloro-phenyl)-4-trifluoromethyl-imidazo[1,5-a]pyrimidine-8-carbonitrile], the melting point was 180 °C. Compound `CCOc1ccc(-c2cc(C(F)(F)F)n3ncc(-c4ccncc4)c3n2)cc1C(F)(F)F` [Example 4.41, 5-(4-Ethoxy-3-trifluoromethyl-phenyl)-3-pyridin-4-yl-7-trifluoromethyl-pyrazolo[1,5-a]pyrimidine] had a melting point of 233 °C. `Cc1cccc(-c2cc(C(F)(F)F)n3ncc(C#N)c3n2)c1` [Example 1.5, 5-(3-Methyl-phenyl)-7-trifluoromethyl-pyrazolo[1,5-a]pyrimidine-3-carbonitrile] returned a melting point of 202 °C. With `FC(F)(F)c1cccc(-c2cc(C(F)(F)F)n3ncc(-c4ccncc4)c3n2)c1` [Example 4.16, 5-(3-Trifluoromethyl-phenyl)-3-pyridin-4-yl-7-trifluoromethyl-pyrazolo[1,5-a]pyrimidine] the figure was 241 °C.

`Cc1cc(-c2cnn3c(C(F)(F)F)cc(-c4ccc(C(F)(F)F)c(OCC(F)(F)F)c4)nc23)ccn1` [Example 4.52, 3-(2-Methyl-pyridin-4-yl)-5-[3-(2,2,2-trifluoro-ethoxy)-4-trifluoromethyl-phenyl]-7-trifluoromethyl-pyrazolo[1,5-a]pyrimidine] had a melting point of 201 °C. `Fc1ccc(-c2cc(C(F)(F)F)n3ncc(-c4cccnc4)c3n2)cc1Cl` [Example 4.6, 5-(3-Chloro-4-fluoro-phenyl)-3-pyridin-3-yl-7-trifluoromethyl-pyrazolo[1,5-a]pyrimidine] registered a melting point of 190 °C. With `FC(F)(F)c1ccc(-c2cc(C(F)(F)F)n3ncc(-c4ccccn4)c3n2)cc1` [Example 4.12, 5-(4-Trifluoromethyl-phenyl)-3-pyridin-2-yl-7-trifluoromethyl-pyrazolo[1,5-a]pyrimidine] the figure was 202 °C. Under `N#Cc1cnn2c(C(F)(F)F)cc(-c3cccc(C(F)(F)F)c3)nc12` [Example 1.6, 5-(3-Trifluoromethyl-phenyl)-7-trifluoromethyl-pyrazolo[1,5-a]pyrimidine-3-carbonitrile] stands 192 °C. Turning to `FC(F)(F)c1ccc(-c2cc(C(F)(F)F)n3ncc(-c4cccnc4)c3n2)cc1` [Example 4.14, 5-(4-Trifluoromethyl-phenyl)-3-pyridin-3-yl-7-trifluoromethyl-pyrazolo[1,5-a]pyrimidine], the melting point was 163 °C.

In turn, `Cc1cc(-c2cc(C(F)(F)F)n3ncc(C#N)c3n2)ccc1Cl` [Example 1.15, 5-(4-Chloro-3-methyl-phenyl)-7-trifluoromethyl-pyrazolo[1,5-a]pyrimidine-3-carbonitrile] had a melting point of 216 °C. On to `Cc1cc(-c2ncn3c(C(F)(F)F)cc(-c4cccc(C(F)(F)F)c4)nc23)ccn1` [Example 8.25, 8-(2-Methyl-pyridin-4-yl)-4-trifluoromethyl-2-(3-trifluoromethyl-phenyl)-imidazo[1,5-a]pyrimidine], for which the melting point worked out at 234 °C.

Source of the values: US7514443B2, “Substituted pyrazolo[1,5-a]pyrimidines as inhibitors of metabotropic glutamate receptors” (Hoffmann-La Roche Inc., priority 2003, dated 2009).
